Experimental data from patent publication US20260176320A1, “MODULATORS OF G-PROTEIN COUPLED RECEPTORS” (priority 2018, published 2026).
Like-named read-outs stand apart in the source and are kept apart here.

How the values were obtained:
Type in all cases: cell-based
[1] = biological target: T1, GLP-1R (Homo sapiens, UniProt P43220); assay: PathHunter β-arrestin assay
Method: The effects of the chemical entities described herein on β-arrestin signaling and associated downstream processes (e.g., those delineated above) can be assessed using conventional methods, e.g., PathHunter β-arrestin Assay for determining β-arresting coupling (see Examples section). […] It has been shown that b-arrestin coupling is a key strep in receptor internalization and subsequent de-sensitization and attenuation of signaling.
5,000 cells were seeded in appropriate cell culture media per well in a low volume 384-well tissue culture plate. The assay plate was incubated with cells overnight at 37° C. and 5% CO2. The media was removed, and 5 μL of appropriate cell culture media containing 0.2% BSA was added. Agonist serial dilutions in a separate 384 well dilution plate in a 22-point series of 2× dilutions of agonist in DMSO were performed as follows. 80 μL of the highest concentration of Agonist/DMSO was added to well No. 1. 40 μL was removed from well No. 1, and added to well No. 2, followed by gentle mixing. […] This process was repeated until well No. 22. Additional serial dilutions for additional agonists were set up in a similar manner. 100 nL of each 2× agonist serial dilution was added in duplicate to the designated agonist rows of the assay plate using the Labcyte ECHO. Assay plate was incubated for 90 minutes at 37° C. and 5% CO2. A stock of Working Detection Solution in a separate 15 ml polypropylene tube was prepared by mixing 19 parts of Cell Assay Buffer, 5 parts of Substrate Reagent 1, 1 part Substrate Reagent 2. […] Plates were spun down briefly. Assay plate was incubated for 3 hour at room temperature in the dark for the immunocompetition reaction to occur. Samples were read on Tecan i-control plate reader using luminescence mode with 100 ms integration time. Data analysis was performed using GraphPad Prism.

[2] = biological target: T1, GLP-1R; assay: HitHunter cAMP assay (GLP-1R); settings: cAMP; for Emax: read-out: (Emax) GLP-1R
Method in brief: (§1)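 Cells were resuspended in HBSS plus HEPES, IBMX (625 μM) and BSA, then dispensed with antibody at 10,000 per well. Agonists followed as 22-point twofold series, 30 min at room temperature. Antibody reagent and detection steps ran 1 h and overnight in the dark before luminescence.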

[3] = biological target: T2, GIP-R (Homo sapiens, UniProt P48546); assay: HitHunter cAMP assay (GIP-R); settings: cAMP; for Emax: read-out: (Emax) GIP-R
T2 sequence (P48546 22-466): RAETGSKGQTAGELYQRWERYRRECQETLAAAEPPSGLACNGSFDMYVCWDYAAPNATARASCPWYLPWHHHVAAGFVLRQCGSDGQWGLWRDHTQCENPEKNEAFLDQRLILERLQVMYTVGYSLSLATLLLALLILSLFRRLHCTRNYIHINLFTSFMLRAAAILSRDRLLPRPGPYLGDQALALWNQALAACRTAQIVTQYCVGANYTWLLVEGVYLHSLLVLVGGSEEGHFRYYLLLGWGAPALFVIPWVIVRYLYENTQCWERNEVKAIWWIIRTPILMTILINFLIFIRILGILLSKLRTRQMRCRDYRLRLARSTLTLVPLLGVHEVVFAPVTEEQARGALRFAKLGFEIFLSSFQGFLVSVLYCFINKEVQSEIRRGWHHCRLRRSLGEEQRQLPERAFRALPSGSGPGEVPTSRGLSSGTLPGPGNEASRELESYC
Method in brief: as §1

T1 sequence (P43220 24-463): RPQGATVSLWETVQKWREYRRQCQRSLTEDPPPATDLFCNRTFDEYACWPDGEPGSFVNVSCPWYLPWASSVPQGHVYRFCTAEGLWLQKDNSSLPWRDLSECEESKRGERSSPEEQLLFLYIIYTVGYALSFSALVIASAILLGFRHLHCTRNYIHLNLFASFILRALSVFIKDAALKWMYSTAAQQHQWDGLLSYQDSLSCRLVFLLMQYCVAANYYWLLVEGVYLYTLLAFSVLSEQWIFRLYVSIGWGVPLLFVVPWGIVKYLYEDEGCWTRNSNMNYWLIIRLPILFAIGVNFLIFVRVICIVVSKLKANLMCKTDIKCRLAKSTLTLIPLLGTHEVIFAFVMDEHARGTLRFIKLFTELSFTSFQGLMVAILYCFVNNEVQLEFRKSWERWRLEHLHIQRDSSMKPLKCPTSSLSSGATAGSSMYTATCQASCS

SMILES	EC50 [1] [nM]	EC50 ([2]; EC50 GLP-1R/nM, Table 3) [nM]	EC50 ([2]; EC50 GLP-1R/nM, Table 3A) [nM]	Emax ([2]; Table 3) [%]	Emax ([2]; Table 3A) [%]	EC50 ([3]; EC50 GIP-R/nM, Table 3) [nM]	EC50 ([3]; EC50 GIP-R/nM, Table 3A) [nM]	Emax ([3]; Table 3) [%]	Emax ([3]; Table 3A) [%]	EC50 ([1]; PathHunter β-arrestin assay, read-out: β-arrestin activity EC50) [nM]	EC50 ([2]; Table 3, read-out: EC50 GLP-1R/nM) [nM]	EC50 ([2]; Table 3A, read-out: EC50 GLP-1R/nM) [nM]	EC50 ([3]; Table 3, read-out: EC50 GIP-R/nM) [nM]	EC50 ([3]; Table 3A, read-out: EC50 GIP-R/nM) [nM]
CCCCCCCCCCCCCCCC(=O)N[C@@H](CCC(=O)NCCCC[C@H](NC(=O)[C@H](CO)NC(=O)[C@@H]1CCCN1C(=O)[C@@H]1CCCN1C(=O)[C@@H]1CCCN1C(=O)[C@H](C)NC(=O)CNC(=O)[C@H](CO)NC(=O)[C@H](CO)NC(=O)[C@@H]1CCCN1C(=O)CNC(=O)CNC(=O)[C@H](C)NC(=O)[C@H](CC(C)C)NC(=O)[C@H](CC(C)C)NC(=O)[C@H](Cc1c[nH]c2ccccc12)NC(=O)[C@H](CC(N)=O)NC(=O)[C@@H](NC(=O)[C@H](Cc1ccccc1)NC(=O)[C@H](CCC(=O)O)NC(=O)C(C)(C)NC(=O)[C@H](C)NC(=O)[C@H](C)NC(=O)[C@H](CCC(N)=O)NC(=O)[C@H](CCCCN)NC(=O)[C@H](CC(=O)O)NC(=O)[C@H](CC(C)C)NC(=O)[C@H](Cc1ccc(O)cc1)NC(=O)[C@@H](NC(=O)[C@H](CO)NC(=O)[C@H](Cc1ccc(O)cc1)NC(=O)[C@H](CC(=O)O)NC(=O)[C@H](CO)NC(=O)[C@@H](NC(=O)[C@H](Cc1ccccc1)NC(=O)[C@@H](NC(=O)CNC(=O)[C@H](CCC(=O)O)NC(=O)CSCC(=O)NCCN1CCC[C@@H](O)C1=O)[C@@H](C)O)[C@@H](C)O)[C@@H](C)CC)C(C)C)C(N)=O)C(=O)O [Compound 7]	> 1000	< 0.1	< 0.1	94	94	1 to 10	10 to 100	29	29	–	–	–	–	–
CCCCCCCCCCCCCCCC(=O)N[C@@H](CCC(=O)NCCCC[C@H](NC(=O)[C@H](CO)NC(=O)[C@@H]1CCCN1C(=O)[C@@H]1CCCN1C(=O)[C@@H]1CCCN1C(=O)[C@H](C)NC(=O)CNC(=O)[C@H](CO)NC(=O)[C@H](CO)NC(=O)[C@@H]1CCCN1C(=O)CNC(=O)CNC(=O)[C@H](C)NC(=O)[C@H](CC(C)C)NC(=O)[C@H](CC(C)C)NC(=O)[C@H](Cc1c[nH]c2ccccc12)NC(=O)[C@H](CC(N)=O)NC(=O)[C@@H](NC(=O)[C@H](Cc1ccccc1)NC(=O)[C@H](CCC(=O)O)NC(=O)C(C)(C)NC(=O)[C@H](C)NC(=O)[C@H](C)NC(=O)[C@H](CCC(N)=O)NC(=O)[C@H](CCCCN)NC(=O)[C@H](CC(=O)O)NC(=O)[C@H](CC(C)C)NC(=O)[C@H](Cc1ccc(O)cc1)NC(=O)[C@@H](NC(=O)[C@H](CO)NC(=O)[C@H](Cc1ccc(O)cc1)NC(=O)[C@H](CC(=O)O)NC(=O)[C@H](CO)NC(=O)[C@@H](NC(=O)[C@H](Cc1ccccc1)NC(=O)[C@@H](NC(=O)CNC(=O)[C@H](CCC(=O)O)NC(=O)CSCC(=O)NCCN1C[C@H](OC)CC1=O)[C@@H](C)O)[C@@H](C)O)[C@@H](C)CC)C(C)C)C(N)=O)C(=O)O [Compound 8]	> 1000	< 0.1	< 0.1	90	90	1 to 10	1 to 10	57	57	–	–	–	–	–
CCCCCCCCCCCCCCCC(=O)N[C@@H](CCC(=O)NCCCC[C@H](NC(=O)[C@H](CO)NC(=O)[C@@H]1CCCN1C(=O)[C@@H]1CCCN1C(=O)[C@@H]1CCCN1C(=O)[C@H](C)NC(=O)CNC(=O)[C@H](CO)NC(=O)[C@H](CO)NC(=O)[C@@H]1CCCN1C(=O)CNC(=O)CNC(=O)[C@H](C)NC(=O)[C@H](CC(C)C)NC(=O)[C@H](CC(C)C)NC(=O)[C@H](Cc1c[nH]c2ccccc12)NC(=O)[C@H](CC(N)=O)NC(=O)[C@@H](NC(=O)[C@H](Cc1ccccc1)NC(=O)[C@H](CCC(=O)O)NC(=O)C(C)(C)NC(=O)[C@H](C)NC(=O)[C@H](C)NC(=O)[C@H](CCC(N)=O)NC(=O)[C@H](CCCCN)NC(=O)[C@H](CC(=O)O)NC(=O)[C@H](CC(C)C)NC(=O)[C@H](Cc1ccc(O)cc1)NC(=O)[C@@H](NC(=O)[C@H](CO)NC(=O)[C@H](Cc1ccc(O)cc1)NC(=O)[C@H](CC(=O)O)NC(=O)[C@H](CO)NC(=O)[C@@H](NC(=O)[C@H](Cc1ccccc1)NC(=O)[C@@H](NC(=O)CNC(=O)[C@H](CCC(=O)O)NC(=O)CCNC(=O)CCN1CCCCC1=O)[C@@H](C)O)[C@@H](C)O)[C@@H](C)CC)C(C)C)C(N)=O)C(=O)O [Compound 9]	–	–	–	100	100	–	–	48	48	> 1000	< 0.1	< 0.1	1 to 10	1 to 10
CCCCCCCCCCCCCCCC(=O)N[C@@H](CCC(=O)NCCCC[C@H](NC(=O)[C@H](CO)NC(=O)[C@@H]1CCCN1C(=O)[C@@H]1CCCN1C(=O)[C@@H]1CCCN1C(=O)[C@H](C)NC(=O)CNC(=O)[C@H](CO)NC(=O)[C@H](CO)NC(=O)[C@@H]1CCCN1C(=O)CNC(=O)CNC(=O)[C@H](C)NC(=O)[C@H](CC(C)C)NC(=O)[C@H](CC(C)C)NC(=O)[C@H](Cc1c[nH]c2ccccc12)NC(=O)[C@H](CC(N)=O)NC(=O)[C@@H](NC(=O)[C@H](Cc1ccccc1)NC(=O)[C@H](CCC(=O)O)NC(=O)C(C)(C)NC(=O)[C@H](C)NC(=O)[C@H](C)NC(=O)[C@H](CCC(N)=O)NC(=O)[C@H](CCCCN)NC(=O)[C@H](CC(=O)O)NC(=O)[C@H](CC(C)C)NC(=O)[C@H](Cc1ccc(O)cc1)NC(=O)[C@@H](NC(=O)[C@H](CO)NC(=O)[C@H](Cc1ccc(O)cc1)NC(=O)[C@H](CC(=O)O)NC(=O)[C@H](CO)NC(=O)[C@@H](NC(=O)[C@H](Cc1ccccc1)NC(=O)[C@@H](NC(=O)CNC(=O)[C@H](CCC(=O)O)NC(=O)CSCC(=O)NCCN1CCCC(C)(C)C1=O)[C@@H](C)O)[C@@H](C)O)[C@@H](C)CC)C(C)C)C(N)=O)C(=O)O [Compound 10]	> 1000	0.1 to 1	0.1 to 1	95	95	1 to 10	1 to 10	32	32	–	–	–	–	–
CCCCCCCCCCCCCCCC(=O)N[C@@H](CCC(=O)NCCCC[C@H](NC(=O)[C@H](CO)NC(=O)[C@@H]1CCCN1C(=O)[C@@H]1CCCN1C(=O)[C@@H]1CCCN1C(=O)[C@H](C)NC(=O)CNC(=O)[C@H](CO)NC(=O)[C@H](CO)NC(=O)[C@@H]1CCCN1C(=O)CNC(=O)CNC(=O)[C@H](C)NC(=O)[C@H](CC(C)C)NC(=O)[C@H](CC(C)C)NC(=O)[C@H](Cc1c[nH]c2ccccc12)NC(=O)[C@H](CC(N)=O)NC(=O)[C@@H](NC(=O)[C@H](Cc1ccccc1)NC(=O)[C@H](CCC(=O)O)NC(=O)C(C)(C)NC(=O)[C@H](C)NC(=O)[C@H](C)NC(=O)[C@H](CCC(N)=O)NC(=O)[C@H](CCCCN)NC(=O)[C@H](CC(=O)O)NC(=O)[C@H](CC(C)C)NC(=O)[C@H](Cc1ccc(O)cc1)NC(=O)[C@@H](NC(=O)[C@H](CO)NC(=O)[C@H](Cc1ccc(O)cc1)NC(=O)[C@H](CC(=O)O)NC(=O)[C@H](CO)NC(=O)[C@@H](NC(=O)[C@H](Cc1ccccc1)NC(=O)[C@@H](NC(=O)CNC(=O)[C@H](CCC(=O)O)NC(=O)CSCC(=O)NCCN1CC[C@@H](OC)C1=O)[C@@H](C)O)[C@@H](C)O)[C@@H](C)CC)C(C)C)C(N)=O)C(=O)O [Compound 11]	> 1000	0.1 to 1	0.1 to 1	96	96	1 to 10	1 to 10	39	39	–	–	–	–	–
